Experimental data from PubChem BioAssay (NCI).
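Results reflect a 48-hour exposure of cells in 96-well plates to compound at five concentrations. GI50 = concentration required for 50% inhibition of growth. At the TGI there is no net growth.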

How the values were obtained:
Experiment in all cases: NCI tumour cell line growth inhibition, 48 h
[1] = system: SF-539 CNS
[2] = system: DU-145 prostate
[3] = system: KM12 colon
[4] = system: NCI-H23 lung
[5] = system: TK-10 renal
[6] = system: HCT-116 colon
[7] = system: HOP-92 NSCLC
[8] = system: SNB-19 CNS
[9] = system: MOLT-4 leukemia
[10] = system: OVCAR-3 ovarian
[11] = system: NCI-H522 lung
[12] = system: A549 NSCLC
[13] = system: CCRF-CEM leukemia
[14] = system: HT29 colon
[15] = system: HS 578T breast
[16] = system: LOX IMVI melanoma
[17] = system: SN12C renal
[18] = system: SF-268 CNS
[19] = system: RXF 393 renal
[20] = system: NCI-H226 lung
[21] = system: SK-MEL-5 melanoma
[22] = system: MDA-MB-435
[23] = system: HL-60(TB) leukemia
[24] = system: U251 CNS
[25] = system: BT-549 breast
[26] = system: COLO 205 colon
[27] = system: K-562 leukemia
[28] = system: UO-31 renal
[29] = system: RPMI-8226 leukemia
[30] = system: PC-3 prostate
[31] = system: MCF7 breast
[32] = system: OVCAR-8 ovarian
[33] = system: EKVX NSCLC
[34] = system: NCI/ADR-RES ovarian
[35] = system: MDA-MB-231 breast
[36] = system: A498 renal
[37] = system: SF-295 CNS
[38] = system: SNB-75 CNS
[39] = system: SR leukemia
[40] = system: UACC-62 melanoma
[41] = system: SK-MEL-28 melanoma
[42] = system: UACC-257 melanoma
[43] = system: CAKI-1 renal
[44] = system: SK-MEL-2 melanoma
[45] = system: 786-0 renal
[46] = system: ACHN renal
[47] = system: M14 melanoma
[48] = system: OVCAR-4 ovarian
[49] = system: NCI-H460 lung
[50] = system: IGROV1 ovarian
[51] = system: HCT-15 colon
[52] = system: OVCAR-5 ovarian
[53] = system: SW-620 colon

Q: Which results are given for `CC1CCC(C#N)(NOC2=NCCN2)CC1` (stereo unspecified)?
A: GI50 [1]: 23.4 µM; TGI [1]: 45.4 µM; GI50 [2]: 39.9 µM; TGI [2]: > 100 µM; GI50 [3]: 42.6 µM; TGI [3]: > 100 µM; GI50 [4]: 34 µM; TGI [4]: > 100 µM; GI50 [5]: 26.3 µM; TGI [5]: > 100 µM; GI50 [6]: 63.8 µM; TGI [6]: > 100 µM; GI50 [7]: 35.4 µM; TGI [7]: 91.3 µM; GI50 [8]: > 100 µM; TGI [8]: > 100 µM; GI50 [9]: 37.3 µM; TGI [9]: > 100 µM; GI50 [10]: 28.9 µM; TGI [10]: > 100 µM; GI50 [11]: 39.6 µM; TGI [11]: > 100 µM; GI50 [12]: 39.4 µM; TGI [12]: > 100 µM; GI50 [13]: 56 µM; TGI [13]: > 100 µM; GI50 [14]: > 100 µM; TGI [14]: > 100 µM; GI50 [15]: > 100 µM; TGI [15]: > 100 µM; GI50 [16]: 5.33 µM; TGI [16]: 20.2 µM; GI50 [17]: 36.2 µM; TGI [17]: > 100 µM; GI50 [18]: 63.1 µM; TGI [18]: > 100 µM; GI50 [19]: > 100 µM; TGI [19]: > 100 µM; GI50 [20]: 15.2 µM; TGI [20]: 34.1 µM; GI50 [21]: 38.6 µM; TGI [21]: > 100 µM; GI50 [22]: 29.2 µM; TGI [22]: > 100 µM; GI50 [23]: 34.5 µM; TGI [23]: > 100 µM; GI50 [24]: 15.8 µM; TGI [24]: 32.4 µM; GI50 [25]: 31.3 µM; TGI [25]: > 100 µM; GI50 [26]: 36 µM; TGI [26]: > 100 µM; GI50 [27]: 29.8 µM; TGI [27]: > 100 µM; GI50 [28]: 11.6 µM; TGI [28]: > 100 µM; GI50 [29]: 40.4 µM; TGI [29]: > 100 µM; GI50 [30]: > 100 µM; TGI [30]: > 100 µM; GI50 [31]: 55.6 µM; TGI [31]: > 100 µM; GI50 [32]: 29.2 µM; TGI [32]: > 100 µM; GI50 [33]: 36.1 µM; TGI [33]: > 100 µM; GI50 [34]: > 100 µM; TGI [34]: > 100 µM; GI50 [35]: 54.9 µM; TGI [35]: > 100 µM; GI50 [36]: 40.5 µM; TGI [36]: > 100 µM; GI50 [37]: 23.6 µM; TGI [37]: 93.4 µM; GI50 [38]: > 100 µM; TGI [38]: > 100 µM; GI50 [39]: 38.7 µM; TGI [39]: > 100 µM; GI50 [40]: 25.4 µM; TGI [40]: > 100 µM; GI50 [41]: > 100 µM; TGI [41]: > 100 µM; GI50 [42]: > 100 µM; TGI [42]: > 100 µM; GI50 [43]: 16.2 µM; TGI [43]: 33.8 µM; GI50 [44]: > 100 µM; TGI [44]: > 100 µM; GI50 [45]: 16.3 µM; TGI [45]: 37.1 µM; GI50 [46]: 15.2 µM; TGI [46]: 30.1 µM; GI50 [47]: 46.4 µM; TGI [47]: > 100 µM; GI50 [48]: 47.2 µM; TGI [48]: > 100 µM; GI50 [49]: 37.7 µM; TGI [49]: > 100 µM; GI50 [50]: 41.7 µM; TGI [50]: > 100 µM; GI50 [51]: 27.8 µM; TGI [51]: > 100 µM; GI50 [52]: > 100 µM; TGI [52]: > 100 µM; GI50 [53]: 33.2 µM; TGI [53]: > 100 µM
